Assay results taken from patent US12589090B2, “Compounds and methods for the treatment of degenerative disorders” (Aquilus Pharmaceuticals, Inc., priority 2019, dated 2026).
Where two headings read alike, the source gives them in different places.

Tests used:
[1] = Steady state oral/IV rat PK and compound penetration into spine and brain (Example 16); format: in vivo, Sprague-Dawley rats; conditions: for concentration at 5 h / AUC(0-inf) / AUC(0-t) / half-life / Cmax: male, Sprague-Dawley; for AUC(0-inf) / AUC(0-t) / half-life / Cmax: plasma
From the text: It is important if one is observing biochemical effects in the spine and brain that one is able to show clear evidence that the compound being tested is in fact able to penetrate to those areas of the body. The present example orally doses compound 118 once per day (SID) for three days to a series of rats. On the third after dosing the rats were then sacrificed after taking blood samples and the level of compound measured in the spine and brain.
Procedure: Twelve (12) male Sprague-Dawley rats were used. Fasting was conducted at least 16 hours prior to dose administration. The animals were placed into 4 groups of 3 animals per group. There was one intravenous (IV) group and three oral gavage (PO) groups (10 mg/Kg, 20 mg/Kg & 40 mg/Kg). The oral (PO) formulation for Groups 2-4 were prepared on the day of dosing at a target concentration of 0.5 mg/mL in 0.5% Methylcellulose (400 cps) to produce a white, homogeneous suspension. The study design is outlined in Table 4:
[…] […] All blood samples were immediately placed on ice until processing. Whole blood samples were centrifuged at 2200×g for 10 minutes in a refrigerated centrifuge (5±3° C.) to isolate plasma. The plasma samples were transferred to individual polypropylene vials and immediately placed on dry ice before storage at nominally −20±5° C. The plasma samples sometime later were then thawed and extracted and analyzed by high pressure liquid chromatography (HPLC) coupled to Mass Spectrometery (MS). Pharmacokinetic parameters were estimated using WinNonlin® pharmacokinetic software (Version No. 5.2.1) using a non-compartmental approach consistent with the PO route of administration. The rodents were then sacrificed. On Day 3, five hours after dosing, animals were euthanized and whole brain and spine were removed, washed with saline and flash frozen until storage at nominally −70° C. before transfer for concentration analysis. The plasma, brain and spinal tissue samples were analyzed for test article concentration using a Research Grade LC-MS/MS Assay.

[2] = system: SOD-1 overexpression in Drosophila motor neurons; assay: SOD-1 Drosophila model of ALS, larval turning read-out (Example 24); format: in vivo; conditions: 1 microMolar, SOD-1 (wild-type and G85R) overexpression, vs. DMSO vehicle
Protocol: (§1) Procedure: Following the method of Zarnescu and coworkers (Human Molecular Genetics, 24(6), 1741-1754, 2015). UAS SOD-1 male Drosophila flies were crossed with D42-Gal4 female virgins on fly food containing either DMSO or 1% Compound 118 in dimethyl sulfoxide (DMSO). For DMSO controls, the same volume of DMSO as the corresponding Compound 118 concentration was added. Bromophenol blue was added to a final concentration of around 0.02% to ensure homogeneity. Crosses were made on drug food with three female virgins and two males in each vial and were maintained at 25° C. unless noted. The parents were discarded after 5-7 days and then the vials were screened for adult progeny with straight wings from Day 14 to Day 25. All adults were screened for SOD-1 expression. Read-outs involved the larval turning assay.
SOD-1^wt=Wild-type, SOD1^G85R=Diseases associated G85R mutant expressed in motor neurons. […], ***p<0.001 as compared to DMSO vehicle.

[3] = system: TDP-43 overexpression in Drosophila motor neurons; assay: TDP-43 Drosophila model of ALS, larval turning read-out (Example 23); format: in vivo; conditions: 1 microMolar, TDP-43 (wild-type and G298S) overexpression, vs. DMSO vehicle
Protocol: as §1, with “Procedure:” for “Procedure: Following the method of Zarnescu and coworkers (Human Molecular Genetics, 24(6), 1741-1754, 2015).”, “TDP-43” for “SOD-1”, “TDP-43 expression by visualizing the YFP tag. Total number of pupae was counted on Day 25. Percent survival was calculated using the formula (total number of straight-winged adults/total number of pupae)×100. All experiments were performed in triplicate.” for “SOD-1 expression.”, “include” for “involved the”, “assay and pupil lethality screen.” for “assay.”
TDP^WT=Wild-type TDP-43, TDP^G298S=Diseases associated G298S mutant expressed in motor neurons. […], ***p<0.001 as compared to DMSO as vehicle.

[4] = rat, iv, 1 mg/kg, DAY 1, 1 mg/kg IV
[5] = rat, iv, 1 mg/kg, DAY 2, 1 mg/kg IV once per day
[6] = rat, iv, 1 mg/kg, DAY 3, 1 mg/kg IV once per day
[7] = rat, po, 10 mg/kg, DAY 1, 10 mg/kg PO
[8] = rat, po, 10 mg/kg, DAY 2, 10 mg/kg PO once per day
[9] = rat, po, 10 mg/kg, DAY 3, 10 mg/kg PO once per day
[10] = rat, po, 20 mg/kg, DAY 1, 20 mg/kg PO
[11] = rat, po, 20 mg/kg, DAY 2, 20 mg/kg PO once per day
[12] = rat, po, 20 mg/kg, DAY 3, 20 mg/kg PO once per day
[13] = rat, po, 40 mg/kg, DAY 1, 40 mg/kg PO
[14] = rat, po, 40 mg/kg, DAY 2, 40 mg/kg PO once per day
[15] = rat, po, 40 mg/kg, DAY 3, 40 mg/kg PO once per day

In the case of `[2H]C([2H])([2H])c1ccc(C#Cc2ccc(S(=O)(=O)N[C@H](Cc3c[nH]c4ccccc34)C(=O)O)s2)cc1` [Compound 118, (R)-3-(1H-Indol-3-yl)-2-[5-(4-trideuteromethyl-phenylethynyl)-thiophene-2-sulfonylamino]-propionic acid-(D3, 98%)], the “dose linearity in plasma” value ([1]; 10, 20 and 40 mg/Kg oral doses, rat) is reported as “exhibited dose linearity in plasma”, the concentration at 5 h ([1]; brain, 10-40 mg/Kg daily oral dose, Day 3, rat, highest level at 40 mg/Kg, read-out: Compound level in the brain) is reported as 30 to 84 ng/mL and the concentration at 5 h ([1]; rat, brain, Day 3, five hours after dosing, 10 mg/kg PO once per day, read-out: Brain) is reported as 30.2 ng/mL. For the same compound, the concentration at 5 h ([1]; rat, brain, Day 3, five hours after dosing, 20 mg/kg PO once per day, read-out: Brain) was 42.1 ng/mL, the concentration at 5 h ([1]; rat, brain, Day 3, five hours after dosing, 40 mg/kg PO once per day, read-out: Brain) was 84.6 ng/mL and the AUC(0-inf) [1, 4] was 1820 ng·h/mL. It also gave an AUC(0-t) [1, 4] of 1810 ng·h/mL, a half-life [1, 4] of 0.97 h and an AUC(0-inf) [1, 5] of 1170 ng·h/mL. For the same compound, the AUC(0-t) [1, 5] was 1170 ng·h/mL, the half-life [1, 5] was 0.936 h and the AUC(0-inf) [1, 6] was 1720 ng·h/mL. For the same compound, the AUC(0-t) [1, 6] was 1650 ng·h/mL, the half-life [1, 6] was 0.89 h and the AUC(0-inf) [1, 7] was 3880 ng·h/mL. The AUC(0-t) [1, 7] was 3770 ng·h/mL, the Cmax [1, 7] was 1170 ng/mL and the half-life [1, 7] was 1.29 h. The AUC(0-inf) [1, 8] was 4480 ng·h/mL, the AUC(0-t) [1, 8] was 4390 ng·h/mL and the Cmax [1, 8] was 1340 ng/mL. The half-life [1, 8] was 1.24 h, the AUC(0-inf) [1, 9] was 12600 ng·h/mL and the AUC(0-t) [1, 9] was 4010 ng·h/mL. For the same compound, the Cmax [1, 9] was 1450 ng/mL, the half-life [1, 9] was 1.59 h and the AUC(0-inf) [1, 10] was 6520 ng·h/mL. The AUC(0-t) [1, 10] was 6410 ng·h/mL, the Cmax [1, 10] was 2140 ng/mL and the half-life [1, 10] was 1.2 h. The AUC(0-inf) [1, 11] was 4730 ng·h/mL, the AUC(0-t) [1, 11] was 4650 ng·h/mL and the Cmax [1, 11] was 2150 ng/mL. For the same compound, the half-life [1, 11] was 1.28 h, the AUC(0-inf) [1, 12] was 10100 ng·h/mL and the AUC(0-t) [1, 12] was 8820 ng·h/mL. It also gave a Cmax [1, 12] of 3850 ng/mL, a half-life [1, 12] of 1.02 h and an AUC(0-inf) [1, 13] of 15800 ng·h/mL. The AUC(0-t) [1, 13] was 15600 ng·h/mL, the Cmax [1, 13] was 5020 ng/mL and the half-life [1, 13] was 1.01 h. The AUC(0-inf) [1, 14] was 12200 ng·h/mL, the AUC(0-t) [1, 14] was 12200 ng·h/mL and the Cmax [1, 14] was 5570 ng/mL. The half-life [1, 14] was 1.02 h, the AUC(0-inf) [1, 15] was 15800 ng·h/mL and the AUC(0-t) [1, 15] was 15600 ng·h/mL. For the same compound, the Cmax [1, 15] was 5020 ng/mL, the half-life [1, 15] was 1.01 h and the concentration at 5 h ([1]; rat, spine, Day 3, five hours after dosing, 10 mg/kg PO once per day, read-out: Spine) was 15.6 ng/mL. It also gave a concentration at 5 h ([1]; rat, spine, Day 3, five hours after dosing, 20 mg/kg PO once per day, read-out: Spine) of 18.3 ng/mL, a concentration at 5 h ([1]; rat, spine, Day 3, five hours after dosing, 40 mg/kg PO once per day, read-out: Spine) of 31 ng/mL and a concentration at 5 h ([1]; spine, 10-40 mg/Kg daily oral dose, Day 3, rat, highest level at 40 mg/Kg, read-out: Compound level in the spine) of 15 to 31 ng/mL. For the same compound, the “locomotive defects via larval turning times” value [2] was “able to mitigate locomotive defects” and the “locomotive defects via larval turning times” value [3] was “able to mitigate locomotive defects”.
